{
  "source": "patent US11666567B2",
  "about": "“Bromocriptine formulations” (VeroScience LLC, priority 2012, dated 2023)",
  "experiment": "Volume-based particle size distribution of bromocriptine mesylate by laser diffractometry (Sympatec HELOS)",
  "type": "physicochemical",
  "conditions": "Table 13, micronized material used for Example 9 tablets",
  "excerpt": "The parameters Dv10, Dv50, Dv90 and Dv99 represent the particle size at the 10%, 50%, 90% and 99% points of the cumulative volume undersize particle size distribution. Thus, a “Dv10” for a material represents a particle size wherein 10% of the volume of the material consists of particles having a particle size equal to the Dv10 value or smaller. A “Dv50” for a material represents a particle size wherein 50% of the volume of the material consists of particles having a particle size equal to the Dv50 value or smaller. A “Dv90” for a material represents a particle size wherein 90% of the volume of the material consists of particles having a particle size equal to the Dv90 value or smaller. A “Dv99” for a material represents a particle size wherein 99% of the volume of the material consists of particles having a particle size equal to the Dv99 value or smaller.\nThe particle size distribution ranges defined herein are based upon measurements made using technology and instruments using laser particle size analysis using the instruments and methods developed by [sequence] GmbH, in particular Sympatec HELOS which can provide particle size analysis of dry and wet samples, i.e., of powders, suspensions, emulsions or sprays and is built to the specifications of ISO 13320 “Particle size analysis—laser diffraction methods.”\nFinally, the possible role of the particle size of bromocriptine mesylate used in the manufacturing process was investigated. The volume-based particle size distribution for the bromocriptine mesylate used in preparing the tablet batches was measured by laser diffractometry using a Sympatec HELOS Laser Diffractometer.\nBulk batches of bromocriptine mesylate were micronized using a jet mill under a nitrogen atmosphere at a controlled temperature of 0° C. The volume particle size distribution was measured using a Sympatec HELOS H1013 Laser Diffractometer.",
  "data": [
    {"smiles": "CC(C)C[C@H]1C(=O)N2CCC[C@H]2[C@]2(O)O[C@](NC(=O)[C@@H]3C=C4c5cccc6[nH]c(Br)c(c56)C[C@H]4N(C)C3)(C(C)C)C(=O)N12.CS(=O)(=O)O", "note": "[Micronized Bromocriptine Mesylate]", "values": [
      {"measurement": "% < 1 μm", "result": 9, "unit": "%"},
      {"measurement": "% < 10 μm", "result": 98, "unit": "%"},
      {"measurement": "% < 15 μm", "result": 100, "unit": "%"}
    ]}
  ]
}
